Reference: PubChem BioAssay (NCI)
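Briefly, cells in 96-well plates were exposed to five compound concentrations for 48 h, and endpoints were estimated by linear interpolation. TGI: concentration producing complete growth inhibition.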

How the values were obtained:
Assay in all cases: NCI anticancer screen, dose series, 48 h
SK-OV-3 ovarian = test system: SK-OV-3 ovarian
UACC-257 melanoma = test system: UACC-257 melanoma
SN12C renal = test system: SN12C renal
SW-620 colon = test system: SW-620 colon
K-562 leukemia = test system: K-562 leukemia
MCF7 breast = test system: MCF7 breast
HOP-92 NSCLC = test system: HOP-92 NSCLC
TK-10 renal = test system: TK-10 renal
SK-MEL-2 melanoma = test system: SK-MEL-2 melanoma
HCT-116 colon = test system: HCT-116 colon
HT29 colon = test system: HT29 colon
IGROV1 ovarian = test system: IGROV1 ovarian
PC-3 prostate = test system: PC-3 prostate
M14 melanoma = test system: M14 melanoma
CAKI-1 renal = test system: CAKI-1 renal
OVCAR-3 ovarian = test system: OVCAR-3 ovarian
NCI-H522 lung = test system: NCI-H522 lung
UO-31 renal = test system: UO-31 renal
A498 renal = test system: A498 renal
HCC-2998 colon = test system: HCC-2998 colon
786-0 renal = test system: 786-0 renal
CCRF-CEM leukemia = test system: CCRF-CEM leukemia
MDA-MB-435 = test system: MDA-MB-435
SF-295 CNS = test system: SF-295 CNS
SK-MEL-28 melanoma = test system: SK-MEL-28 melanoma
U251 CNS = test system: U251 CNS
MDA-MB-231 breast = test system: MDA-MB-231 breast
RPMI-8226 leukemia = test system: RPMI-8226 leukemia
HS 578T breast = test system: HS 578T breast
NCI-H23 lung = test system: NCI-H23 lung
OVCAR-4 ovarian = test system: OVCAR-4 ovarian
MDA-N = test system: MDA-N
SNB-75 CNS = test system: SNB-75 CNS
HCT-15 colon = test system: HCT-15 colon
UACC-62 melanoma = test system: UACC-62 melanoma
MOLT-4 leukemia = test system: MOLT-4 leukemia
SF-268 CNS = test system: SF-268 CNS
A549 NSCLC = test system: A549 NSCLC
T-47D breast = test system: T-47D breast
RXF 393 renal = test system: RXF 393 renal
BT-549 breast = test system: BT-549 breast
SK-MEL-5 melanoma = test system: SK-MEL-5 melanoma
OVCAR-5 ovarian = test system: OVCAR-5 ovarian
NCI/ADR-RES ovarian = test system: NCI/ADR-RES ovarian
ACHN renal = test system: ACHN renal
MALME-3M melanoma = test system: MALME-3M melanoma
NCI-H460 lung = test system: NCI-H460 lung
DU-145 prostate = test system: DU-145 prostate
HOP-62 NSCLC = test system: HOP-62 NSCLC
SF-539 CNS = test system: SF-539 CNS
SR leukemia = test system: SR leukemia
NCI-H226 lung = test system: NCI-H226 lung
COLO 205 colon = test system: COLO 205 colon
OVCAR-8 ovarian = test system: OVCAR-8 ovarian
KM12 colon = test system: KM12 colon

**Q.** How did the TGI (SK-OV-3 ovarian) turn out when `O=C1CC(=O)NC(=NN2C(=O)/C(=C/c3ccccc3)N=C2c2ccccc2)N1` was run?
**A.** Its TGI is > 100 µM.

**Q.** What about the TGI (UACC-257 melanoma) of the same compound?
**A.** Its TGI is > 100 µM.

**Q.** And the TGI (SN12C renal)?
**A.** Its TGI is > 100 µM.

**Q.** What about the TGI (SW-620 colon) of the same compound?
**A.** Its TGI is > 100 µM.

**Q.** And the TGI (K-562 leukemia)?
**A.** The TGI was > 100 µM.

**Q.** What about the TGI (MCF7 breast) of the same compound?
**A.** Its TGI is > 100 µM.

**Q.** What about the TGI (HOP-92 NSCLC) of the same compound?
**A.** The TGI was > 100 µM.

**Q.** What about the TGI (TK-10 renal) of the same compound?
**A.** The TGI was > 100 µM.

**Q.** What about the TGI (SK-MEL-2 melanoma) of the same compound?
**A.** Its TGI is > 100 µM.

**Q.** What about the TGI (HCT-116 colon) of the same compound?
**A.** The TGI was > 100 µM.

**Q.** And the TGI (HT29 colon)?
**A.** Its TGI is > 100 µM.

**Q.** And the TGI (IGROV1 ovarian)?
**A.** The TGI was > 100 µM.

**Q.** And the TGI (PC-3 prostate)?
**A.** Its TGI is > 100 µM.

**Q.** What about the TGI (M14 melanoma) of the same compound?
**A.** Its TGI is > 100 µM.

**Q.** And the TGI (CAKI-1 renal)?
**A.** Its TGI is > 100 µM.

**Q.** And the TGI (OVCAR-3 ovarian)?
**A.** Its TGI is > 100 µM.

**Q.** What about the TGI (NCI-H522 lung) of the same compound?
**A.** The TGI was > 100 µM.

**Q.** And the TGI (UO-31 renal)?
**A.** The TGI was > 100 µM.

**Q.** And the TGI (A498 renal)?
**A.** Its TGI is > 100 µM.

**Q.** And the TGI (HCC-2998 colon)?
**A.** Its TGI is > 100 µM.

**Q.** And the TGI (786-0 renal)?
**A.** The TGI was > 100 µM.

**Q.** And the TGI (CCRF-CEM leukemia)?
**A.** Its TGI is > 100 µM.

**Q.** What about the TGI (MDA-MB-435) of the same compound?
**A.** The TGI was > 100 µM.

**Q.** And the TGI (SF-295 CNS)?
**A.** The TGI was > 100 µM.

**Q.** And the TGI (SK-MEL-28 melanoma)?
**A.** Its TGI is > 100 µM.

**Q.** What about the TGI (U251 CNS) of the same compound?
**A.** Its TGI is > 100 µM.

**Q.** And the TGI (MDA-MB-231 breast)?
**A.** The TGI was > 100 µM.

**Q.** And the TGI (RPMI-8226 leukemia)?
**A.** Its TGI is > 100 µM.

**Q.** What about the TGI (HS 578T breast) of the same compound?
**A.** Its TGI is > 100 µM.

**Q.** What about the TGI (NCI-H23 lung) of the same compound?
**A.** Its TGI is > 100 µM.

**Q.** And the TGI (OVCAR-4 ovarian)?
**A.** Its TGI is > 100 µM.

**Q.** What about the TGI (MDA-N) of the same compound?
**A.** The TGI was > 100 µM.

**Q.** And the TGI (SNB-75 CNS)?
**A.** Its TGI is > 100 µM.

**Q.** What about the TGI (HCT-15 colon) of the same compound?
**A.** Its TGI is > 100 µM.

**Q.** And the TGI (UACC-62 melanoma)?
**A.** The TGI was 96.5 µM.

**Q.** And the TGI (MOLT-4 leukemia)?
**A.** Its TGI is > 100 µM.

**Q.** What about the TGI (SF-268 CNS) of the same compound?
**A.** The TGI was > 100 µM.

**Q.** And the TGI (A549 NSCLC)?
**A.** Its TGI is > 100 µM.

**Q.** And the TGI (T-47D breast)?
**A.** The TGI was > 100 µM.

**Q.** And the TGI (RXF 393 renal)?
**A.** The TGI was > 100 µM.

**Q.** What about the TGI (BT-549 breast) of the same compound?
**A.** The TGI was 77.1 µM.

**Q.** What about the TGI (SK-MEL-5 melanoma) of the same compound?
**A.** Its TGI is > 100 µM.

**Q.** What about the TGI (OVCAR-5 ovarian) of the same compound?
**A.** Its TGI is > 100 µM.

**Q.** And the TGI (NCI/ADR-RES ovarian)?
**A.** Its TGI is > 100 µM.

**Q.** What about the TGI (ACHN renal) of the same compound?
**A.** The TGI was > 100 µM.

**Q.** And the TGI (MALME-3M melanoma)?
**A.** Its TGI is > 100 µM.

**Q.** What about the TGI (NCI-H460 lung) of the same compound?
**A.** Its TGI is > 100 µM.

**Q.** What about the TGI (DU-145 prostate) of the same compound?
**A.** Its TGI is > 100 µM.

**Q.** And the TGI (HOP-62 NSCLC)?
**A.** Its TGI is > 100 µM.

**Q.** And the TGI (SF-539 CNS)?
**A.** The TGI was > 100 µM.

**Q.** And the TGI (SR leukemia)?
**A.** The TGI was > 100 µM.

**Q.** And the TGI (NCI-H226 lung)?
**A.** The TGI was > 100 µM.

**Q.** And the TGI (COLO 205 colon)?
**A.** The TGI was > 100 µM.

**Q.** What about the TGI (OVCAR-8 ovarian) of the same compound?
**A.** The TGI was > 100 µM.

**Q.** And the TGI (KM12 colon)?
**A.** Its TGI is > 100 µM.
